Results reported in ChEMBL document CHEMBL5523720, “Identification of novel GSPT1 degraders by virtual screening and bioassay” (Eur J Med Chem, 2024).
Activity calls are given as the source filed them. The calls are words filed in the database; no cut-off is given here.

Assays:
[1] = system: OCI-AML2; test: Antiproliferative activity against human OCI-AML2 cells incubated for 48 hrs by MTS assay; assay type: functional, cell-based; conditions: OCI-AML2, 48 h
[2] = system: U-266; test: Antiproliferative activity against human U-266 cells incubated for 48 hrs by MTS assay; assay type: functional, cell-based; conditions: U-266, 48 h
[3] = system: U-937; test: Antiproliferative activity against human U-937 cells incubated for 48 hrs by MTS assay; assay type: functional, cell-based; conditions: U-937, 48 h
[4] = system: K562; test: Antiproliferative activity against human K562 cells incubated for 48 hrs by MTS assay; assay type: functional, cell-based; conditions: K562, 48 h
[5] = target: Eukaryotic peptide chain release factor GTP-binding subunit ERF3A (Homo sapiens) (UniProt P15170); test: Induction of GSPT1 degradation in human OCI-AML2 cells at 10 uM incubated for 8 hrs by Western blotting analysis; assay type: cell-based
Chain of Eukaryotic peptide chain release factor GTP-binding subunit ERF3A (Homo sapiens) (P15170 whole entry): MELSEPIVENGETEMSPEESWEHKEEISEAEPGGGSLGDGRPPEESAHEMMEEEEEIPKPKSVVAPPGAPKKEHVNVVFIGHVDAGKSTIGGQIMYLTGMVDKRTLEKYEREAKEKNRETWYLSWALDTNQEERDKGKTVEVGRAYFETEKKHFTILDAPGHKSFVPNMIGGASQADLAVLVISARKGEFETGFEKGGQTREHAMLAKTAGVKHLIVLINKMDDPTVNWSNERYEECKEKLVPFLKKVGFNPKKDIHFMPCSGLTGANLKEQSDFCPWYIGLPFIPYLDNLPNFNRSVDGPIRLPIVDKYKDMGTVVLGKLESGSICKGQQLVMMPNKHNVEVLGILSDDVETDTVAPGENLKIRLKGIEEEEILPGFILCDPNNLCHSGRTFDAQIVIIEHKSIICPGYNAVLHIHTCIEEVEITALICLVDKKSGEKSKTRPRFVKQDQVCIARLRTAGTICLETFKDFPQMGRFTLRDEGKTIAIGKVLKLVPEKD

[6] = system: U-937; test: Downregulation of GSPT1 in human U-937 cells incubated for 8 hrs by Western blotting analysis; assay type: functional, cell-based; conditions: dose 5-40 µM
[7] = system: U-937; test: Downregulation of IKZF1 in human U-937 cells incubated for 8 hrs by Western blotting analysis; assay type: functional, cell-based; conditions: dose 5-40 µM
[8] = system: U-937; test: Downregulation of CK1alpha in human U-937 cells incubated for 8 hrs by Western blotting analysis; assay type: functional, cell-based; conditions: dose 5-40 µM
[9] = system: OCI-AML2; test: Downregulation of GSPT1 in human OCI-AML2 cells incubated for 8 hrs by Western blotting analysis; assay type: functional, cell-based; conditions: dose 5-40 µM
[10] = target: Eukaryotic peptide chain release factor GTP-binding subunit ERF3A (Homo sapiens) (UniProt P15170); test: Induction of GSPT1 degradation in human U-937 cells at 10 uM incubated for 8 hrs by Western blotting analysis; assay type: cell-based
[11] = system: OCI-AML2; test: Downregulation of IKZF1 in human OCI-AML2 cells incubated for 8 hrs by Western blotting analysis; assay type: functional, cell-based; conditions: dose 5-40 µM
[12] = system: OCI-AML2; test: Downregulation of CK1alpha in human OCI-AML2 cells incubated for 8 hrs by Western blotting analysis; assay type: functional, cell-based; conditions: dose 5-40 µM

IC50 [1] [µM]	IC50 [3] [µM]	IC50 [4] [µM]	Activity [5]	Activity [10]	SMILES	IC50 [2] [µM]	Activity [6]	Activity [7]	Activity [8]	Activity [9]	Activity [11]	Activity [12]
> 40	> 40	> 40	–	–	Cc1ccc2nc(C)c(C(=O)N/N=C/c3cccnc3)cc2c1	> 40	–	–	–	–	–	–
> 40	> 40	> 40	–	–	Cc1nc2ccccc2cc1C(=O)N/N=C/c1cccc([N+](=O)[O-])c1	> 40	–	–	–	–	–	–
8.98	6.53	> 40	–	–	Cc1nc2ccccc2cc1C(=O)N/N=C/c1ccccc1O	6.75	–	–	–	–	–	–
17.2	22.6	19.4	Active	Active	Cc1nc2c(C)cccc2cc1C(=O)N/N=C/c1cccc(O)c1	17.7	Dose-Dependent Effect	Dose-Dependent Effect	Dose-Dependent Effect	Dose-Dependent Effect	Dose-Dependent Effect	Dose-Dependent Effect
10.4	20	11.1	–	–	Cc1nc2c(C)cccc2cc1C(=O)N/N=C/c1c(C)[nH]c2ccccc12	17.4	–	–	–	–	–	–
> 40	> 40	> 40	–	–	Cc1nc2ccccc2cc1C(=O)N/N=C/c1ccccn1	> 40	–	–	–	–	–	–
11	16.4	37.6	–	–	Cc1nc2c(C)cccc2cc1C(=O)N/N=C/c1ccccc1	10.1	–	–	–	–	–	–
2.68	9.9	12.8	–	–	Cc1nc2c(C)cccc2cc1C(=O)N/N=C/c1cccc([N+](=O)[O-])c1	7.13	–	–	–	–	–	–
> 40	> 40	> 40	–	–	COc1ccc2ccccc2c1/C=N/NC(=O)c1cc2cccc(C)c2nc1C	> 40	–	–	–	–	–	–
> 40	> 40	> 40	–	–	Cc1ccc2nc(C)c(C(=O)N/N=C/c3cccc([N+](=O)[O-])c3)cc2c1	> 40	–	–	–	–	–	–
